Values belong to the compound of their own block, whether it stands above or below them.
Assays:
[1] = molecular target: T1, Mitogen-activated protein kinase kinase kinase kinase 1 (Homo sapiens, UniProt Q92918); experiment: Inhibition of N-terminal DYKDDDDK recombinant human HPK1 (1 to 346 residues) expressed in Sf21 insect cells preincubated for 10 min followed by fluorescein PKC and ATP addition and measured after 90 min by Envision2104 Multilabel Reader analysis
Target sequence in this assay (Q92918 whole entry, the tested form may be a part): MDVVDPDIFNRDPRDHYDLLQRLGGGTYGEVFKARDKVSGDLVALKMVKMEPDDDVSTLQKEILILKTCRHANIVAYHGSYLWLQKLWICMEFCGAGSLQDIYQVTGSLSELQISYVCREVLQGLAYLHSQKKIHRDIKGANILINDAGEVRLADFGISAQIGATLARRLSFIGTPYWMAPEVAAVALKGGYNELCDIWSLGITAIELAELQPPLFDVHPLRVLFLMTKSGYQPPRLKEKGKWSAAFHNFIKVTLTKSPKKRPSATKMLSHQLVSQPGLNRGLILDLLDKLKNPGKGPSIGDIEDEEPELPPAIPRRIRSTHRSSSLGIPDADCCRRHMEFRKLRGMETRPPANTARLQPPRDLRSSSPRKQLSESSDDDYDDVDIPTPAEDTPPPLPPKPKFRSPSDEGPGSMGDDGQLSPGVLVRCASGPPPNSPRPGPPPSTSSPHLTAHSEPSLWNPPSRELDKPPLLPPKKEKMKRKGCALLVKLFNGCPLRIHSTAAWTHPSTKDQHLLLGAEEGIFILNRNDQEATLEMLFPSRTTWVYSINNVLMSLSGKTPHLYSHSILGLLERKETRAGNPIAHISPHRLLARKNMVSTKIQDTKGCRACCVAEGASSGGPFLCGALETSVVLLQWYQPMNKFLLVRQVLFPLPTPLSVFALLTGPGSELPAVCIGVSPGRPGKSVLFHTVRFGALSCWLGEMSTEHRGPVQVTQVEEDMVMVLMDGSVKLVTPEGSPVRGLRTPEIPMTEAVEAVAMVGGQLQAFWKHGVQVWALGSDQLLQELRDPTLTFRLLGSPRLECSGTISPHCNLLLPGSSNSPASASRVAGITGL

[2] = molecular target: T1, Mitogen-activated protein kinase kinase kinase kinase 1; experiment: Inhibition of HPK1 in human Jurkat cells assessed as reduction in SLP76 phosphorylation pretreated for 1 hr followed by anti-CD3 addition and measured after 15 min by ELISA method; assay type: cell-based
Target sequence in this assay (Q92918 whole entry, the tested form may be a part): as above

[3] = molecular target: T1, Mitogen-activated protein kinase kinase kinase kinase 1; experiment: Inhibition of HPK1 in human T cells assessed as increase in IL-2 secretion measured after 24 hrs by ELISA method; assay type: cell-based, T-cell; conditions: for Activity: T-cell
[4] = Half life in overnight fasted mouse at 1 mg/kg, iv; assay type: ADME, organism-based; conditions: in vivo
[5] = Plasma clearance in overnight fasted mouse at 1 mg/kg, iv; assay type: ADME, organism-based
[6] = AUC (0 to 24 hrs) in overnight fasted mouse at 10 mg/kg, po; assay type: ADME, organism-based; conditions: in vivo
[7] = Oral bioavailability in in overnight fasted mouse at 10 mg/kg; assay type: ADME, organism-based; conditions: in vivo
[8] = Half life in overnight fasted rat at 1 mg/kg, iv; assay type: ADME, organism-based; conditions: in vivo
[9] = Plasma Clearance in overnight fasted rat at 1 mg/kg, iv; assay type: ADME, organism-based
[10] = Cmax in overnight fasted rat at 10 mg/kg, po; assay type: ADME, organism-based; conditions: in vivo
[11] = AUC (0 to 24 hrs) in overnight fasted rat at 10 mg/kg, po; assay type: ADME, organism-based; conditions: in vivo
[12] = Oral bioavailability in in overnight fasted rat at 10 mg/kg; assay type: ADME, organism-based; conditions: in vivo
[13] = Cmax in overnight fasted mouse at 10 mg/kg, po; assay type: ADME, organism-based; conditions: in vivo
[14] = molecular target: Mitogen-activated protein kinase kinase kinase kinase 2 (Homo sapiens, UniProt Q12851); experiment: Inhibition of N-terminal GST tagged recombinant human MAP4K2 (1 to 820 residues) expressed in Sf21 insect cells preincubated for 10 min followed by fluorescein PKC and ATP addition and measured after 90 min by Envision2104 Multilabel Reader analysis
[15] = molecular target: Mitogen-activated protein kinase kinase kinase kinase 3 (Homo sapiens, UniProt Q8IVH8); experiment: Inhibition of GST-tagged recombinant human MAP4K3 (1 to 380 residues) extracted from Baculovirus infected Sf9 insect cells preincubated for 10 min followed by fluorescein PKC and ATP addition and measured after 90 min by Envision2104 Multilabel Reader analysis
[16] = molecular target: Mitogen-activated protein kinase kinase kinase kinase 4 (Homo sapiens, UniProt O95819); experiment: Inhibition of N-terminal GST-tagged recombinant human MAP4K4 (1 to 328 residues) expressed in Sf21 insect cells preincubated for 10 min followed by fluorescein PKC and ATP addition and measured after 90 min by Envision2104 Multilabel Reader analysis
[17] = molecular target: Mitogen-activated protein kinase kinase kinase kinase 5 (Homo sapiens, UniProt Q9Y4K4); experiment: Inhibition of GST-tagged recombinant human full length MAP4K5 expressed in insect cells preincubated for 10 min followed by fluorescein PKC and ATP addition and measured after 90 min by Envision2104 Multilabel Reader analysis; set-up: species or system Insect cell
Misshapen-like kinase 1 = Misshapen-like kinase 1 (Homo sapiens, UniProt Q8N4C8); experiment: Inhibition of N-terminal GST-tagged recombinant human MAP4K6 (7 to 139 residues) expressed in Sf21 insect cells preincubated for 10 min followed by fluorescein PKC and ATP addition and measured after 90 min by Envision2104 Multilabel Reader analysis
Chain of Misshapen-like kinase 1 (Q8N4C8 whole entry, the tested form may be a part): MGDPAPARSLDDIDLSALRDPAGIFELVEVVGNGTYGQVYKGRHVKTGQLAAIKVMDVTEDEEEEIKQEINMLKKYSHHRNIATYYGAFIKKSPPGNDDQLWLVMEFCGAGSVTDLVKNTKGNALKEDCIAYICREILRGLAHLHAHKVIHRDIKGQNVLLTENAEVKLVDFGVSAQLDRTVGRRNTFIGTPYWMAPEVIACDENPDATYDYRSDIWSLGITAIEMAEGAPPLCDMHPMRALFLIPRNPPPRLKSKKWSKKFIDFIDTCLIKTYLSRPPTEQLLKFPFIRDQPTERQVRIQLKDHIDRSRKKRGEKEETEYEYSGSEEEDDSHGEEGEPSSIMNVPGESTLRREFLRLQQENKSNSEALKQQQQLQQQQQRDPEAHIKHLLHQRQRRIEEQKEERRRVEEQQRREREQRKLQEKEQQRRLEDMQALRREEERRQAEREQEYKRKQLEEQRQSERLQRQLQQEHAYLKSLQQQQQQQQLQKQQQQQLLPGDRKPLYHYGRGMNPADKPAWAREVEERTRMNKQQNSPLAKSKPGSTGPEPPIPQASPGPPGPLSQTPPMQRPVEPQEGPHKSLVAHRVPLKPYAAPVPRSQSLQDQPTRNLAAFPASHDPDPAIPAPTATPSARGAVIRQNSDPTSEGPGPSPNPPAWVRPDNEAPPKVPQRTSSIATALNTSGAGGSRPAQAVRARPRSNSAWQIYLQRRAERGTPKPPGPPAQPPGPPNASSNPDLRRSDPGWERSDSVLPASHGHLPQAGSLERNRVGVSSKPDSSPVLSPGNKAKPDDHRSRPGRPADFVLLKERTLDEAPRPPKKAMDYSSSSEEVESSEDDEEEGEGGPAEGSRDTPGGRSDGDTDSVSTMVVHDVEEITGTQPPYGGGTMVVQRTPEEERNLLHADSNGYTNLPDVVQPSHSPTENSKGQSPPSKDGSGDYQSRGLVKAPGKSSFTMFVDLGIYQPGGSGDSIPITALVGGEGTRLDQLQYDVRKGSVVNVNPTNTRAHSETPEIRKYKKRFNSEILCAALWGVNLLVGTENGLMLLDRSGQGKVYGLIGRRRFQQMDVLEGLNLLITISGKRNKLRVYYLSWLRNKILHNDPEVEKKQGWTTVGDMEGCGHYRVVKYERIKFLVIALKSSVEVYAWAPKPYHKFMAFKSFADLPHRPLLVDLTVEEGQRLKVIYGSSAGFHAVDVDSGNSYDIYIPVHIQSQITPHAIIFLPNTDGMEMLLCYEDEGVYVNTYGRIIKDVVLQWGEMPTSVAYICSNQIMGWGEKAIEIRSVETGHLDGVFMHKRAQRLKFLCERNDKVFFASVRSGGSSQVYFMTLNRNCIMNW

[18] = molecular target: Mitogen-activated protein kinase 3 (Homo sapiens) (UniProt P27361); experiment: Inhibition of ERK1 (unknown origin) at 1000 nM incubated for 1 hrs by active site-directed competition binding assay relative to control
[19] = molecular target: Mitogen-activated protein kinase 1 (Homo sapiens) (UniProt P28482); experiment: Inhibition of ERK2 (unknown origin) at 1000 nM incubated for 1 hrs by active site-directed competition binding assay relative to control
Chain of Mitogen-activated protein kinase 1 (Homo sapiens) (P28482 whole entry): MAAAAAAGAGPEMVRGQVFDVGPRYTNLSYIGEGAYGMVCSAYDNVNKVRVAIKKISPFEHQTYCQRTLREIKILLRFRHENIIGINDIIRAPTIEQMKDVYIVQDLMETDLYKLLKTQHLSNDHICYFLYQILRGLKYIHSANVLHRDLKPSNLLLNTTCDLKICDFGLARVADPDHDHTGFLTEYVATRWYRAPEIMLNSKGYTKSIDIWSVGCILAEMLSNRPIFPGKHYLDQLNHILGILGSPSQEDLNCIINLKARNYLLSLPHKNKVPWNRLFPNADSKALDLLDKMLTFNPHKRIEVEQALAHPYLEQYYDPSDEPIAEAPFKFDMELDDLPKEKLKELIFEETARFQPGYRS

[20] = molecular target: Inhibitor of nuclear factor kappa-B kinase subunit beta (Homo sapiens) (UniProt O14920); experiment: Inhibition of IKKbeta (unknown origin) at 1000 nM incubated for 1 hrs by active site-directed competition binding assay relative to control
[21] = molecular target: Tyrosine-protein kinase ITK/TSK (Homo sapiens) (UniProt Q08881); experiment: Inhibition of ITK (unknown origin) at 1000 nM incubated for 1 hrs by active site-directed competition binding assay relative to control
[22] = molecular target: Mitogen-activated protein kinase 8 (Homo sapiens) (UniProt P45983); experiment: Inhibition of JNK1 (unknown origin) at 1000 nM incubated for 1 hrs by active site-directed competition binding assay relative to control
[23] = molecular target: Mitogen-activated protein kinase 9 (Homo sapiens) (UniProt P45984); experiment: Inhibition of JNK2 (unknown origin) at 1000 nM incubated for 1 hrs by active site-directed competition binding assay relative to control
[24] = molecular target: Mitogen-activated protein kinase 14 (Homo sapiens) (UniProt Q16539); experiment: Inhibition of P38alpha (unknown origin) at 1000 nM incubated for 1 hrs by active site-directed competition binding assay relative to control
Chain of Mitogen-activated protein kinase 14 (Homo sapiens) (Q16539 whole entry): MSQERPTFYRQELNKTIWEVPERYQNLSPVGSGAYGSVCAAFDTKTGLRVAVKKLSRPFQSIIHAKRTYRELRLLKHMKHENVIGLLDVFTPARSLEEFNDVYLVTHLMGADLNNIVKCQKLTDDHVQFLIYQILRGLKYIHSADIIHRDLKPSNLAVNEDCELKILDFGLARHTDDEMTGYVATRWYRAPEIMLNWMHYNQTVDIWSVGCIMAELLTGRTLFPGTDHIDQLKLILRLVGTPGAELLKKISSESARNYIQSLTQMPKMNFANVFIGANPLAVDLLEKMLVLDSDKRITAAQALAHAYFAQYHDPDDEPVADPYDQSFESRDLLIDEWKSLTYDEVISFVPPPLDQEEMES

[25] = molecular target: Mitogen-activated protein kinase 11 (Homo sapiens) (UniProt Q15759); experiment: Inhibition of P38beta (unknown origin) at 1000 nM incubated for 1 hrs by active site-directed competition binding assay relative to control
[26] = molecular target: Mitogen-activated protein kinase 12 (Homo sapiens) (UniProt P53778); experiment: Inhibition of P38gamma (unknown origin) at 1000 nM incubated for 1 hrs by active site-directed competition binding assay relative to control
[27] = molecular target: Mitogen-activated protein kinase 13 (Homo sapiens) (UniProt O15264); experiment: Inhibition of P38delta (unknown origin) at 1000 nM incubated for 1 hrs by active site-directed competition binding assay relative to control
[28] = molecular target: RAF proto-oncogene serine/threonine-protein kinase (Homo sapiens) (UniProt P04049); experiment: Inhibition of RAF1 (unknown origin) at 1000 nM incubated for 1 hrs by active site-directed competition binding assay relative to control
Homo sapiens = species: Homo sapiens; experiment: Inhibition of TAK1 (unknown origin) at 1000 nM incubated for 1 hrs by active site-directed competition binding assay relative to control
[29] = molecular target: Tyrosine-protein kinase ZAP-70 (Homo sapiens) (UniProt P43403); experiment: Inhibition of ZAP70 (unknown origin) at 1000 nM incubated for 1 hrs by active site-directed competition binding assay relative to control
Chain of Tyrosine-protein kinase ZAP-70 (Homo sapiens) (P43403 whole entry, the tested form may be a part): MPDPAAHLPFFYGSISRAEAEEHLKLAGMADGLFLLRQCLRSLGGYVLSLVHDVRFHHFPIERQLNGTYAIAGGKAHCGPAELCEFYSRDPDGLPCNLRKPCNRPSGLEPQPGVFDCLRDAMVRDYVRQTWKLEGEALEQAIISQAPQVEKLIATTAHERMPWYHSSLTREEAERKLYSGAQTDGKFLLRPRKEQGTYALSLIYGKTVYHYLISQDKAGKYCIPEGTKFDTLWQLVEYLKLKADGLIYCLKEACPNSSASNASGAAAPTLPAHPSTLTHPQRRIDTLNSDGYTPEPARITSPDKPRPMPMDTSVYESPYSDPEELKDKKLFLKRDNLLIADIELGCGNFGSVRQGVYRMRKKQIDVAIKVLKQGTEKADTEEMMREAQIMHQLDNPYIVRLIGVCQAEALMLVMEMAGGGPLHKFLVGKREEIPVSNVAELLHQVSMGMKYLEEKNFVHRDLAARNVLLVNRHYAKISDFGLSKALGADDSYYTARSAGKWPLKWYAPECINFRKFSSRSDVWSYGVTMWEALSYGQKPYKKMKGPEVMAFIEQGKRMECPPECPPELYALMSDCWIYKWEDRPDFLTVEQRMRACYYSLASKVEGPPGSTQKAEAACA

[30] = Inhibition of N-terminal His-tagged recombinant human TAK1(1 to 303 residues) expressed in Sf21 insect cells preincubated for 10 min followed by inactive MEK1 and ATP addition and measured after 90 min by Envision2104 Multilabel Reader analysis
[31] = molecular target: Mitogen-activated protein kinase kinase kinase kinase 1 (Mus musculus) (UniProt P70218); experiment: In vivo inhibition of HPK1 in female BALB/c mouse assessed as reduction in SLP76 phosphorylation in spleen at 100 mg/kg qd, ip and measured after 3 hrs post dosing by Western blot analysis relative to control; assay type: functional, organism-based
Chain of Mitogen-activated protein kinase kinase kinase kinase 1 (Mus musculus) (P70218 whole entry): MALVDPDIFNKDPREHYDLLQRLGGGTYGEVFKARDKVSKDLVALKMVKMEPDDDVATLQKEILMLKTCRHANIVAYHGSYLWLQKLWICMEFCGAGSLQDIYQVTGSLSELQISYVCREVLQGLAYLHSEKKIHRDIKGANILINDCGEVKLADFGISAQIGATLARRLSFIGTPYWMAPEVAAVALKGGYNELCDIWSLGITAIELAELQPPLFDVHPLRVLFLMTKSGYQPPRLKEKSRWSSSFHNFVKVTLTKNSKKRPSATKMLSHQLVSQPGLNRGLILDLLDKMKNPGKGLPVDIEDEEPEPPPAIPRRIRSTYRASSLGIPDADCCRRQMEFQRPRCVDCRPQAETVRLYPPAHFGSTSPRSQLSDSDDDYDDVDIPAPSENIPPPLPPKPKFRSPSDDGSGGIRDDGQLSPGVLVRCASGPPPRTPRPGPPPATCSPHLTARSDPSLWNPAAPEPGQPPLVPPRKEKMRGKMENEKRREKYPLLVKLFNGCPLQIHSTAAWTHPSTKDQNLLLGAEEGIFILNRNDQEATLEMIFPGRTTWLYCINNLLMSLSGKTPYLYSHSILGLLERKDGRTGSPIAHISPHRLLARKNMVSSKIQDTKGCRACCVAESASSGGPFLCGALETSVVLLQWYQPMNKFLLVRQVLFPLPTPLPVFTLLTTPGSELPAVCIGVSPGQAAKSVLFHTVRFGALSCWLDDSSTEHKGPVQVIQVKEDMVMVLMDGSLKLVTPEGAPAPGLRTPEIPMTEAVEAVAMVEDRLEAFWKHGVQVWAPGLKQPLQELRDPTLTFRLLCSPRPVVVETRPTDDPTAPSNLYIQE

[32] = molecular target: Mitogen-activated protein kinase kinase kinase kinase 1 (Mus musculus) (UniProt P70218); experiment: In vivo inhibition of HPK1 in female BALB/c mouse assessed as reduction in SLP76 phosphorylation in spleen at 100 mg/kg qd, ip and measured after 24 hrs post dosing by Western blot analysis relative to control; assay type: functional, organism-based
CT26 [33] = experiment: Antitumor activity against mouse CT26 cells allografted in female BALB/c mouse assessed as tumor growth inhibition at 30 mg/kg, administered orally twice daily for 2 weeks; assay type: functional; conditions: CT26, 336 h, route po, read-out: TGI
CT26 [34] = experiment: Antitumor activity against mouse CT26 cells allografted in female BALB/c mouse assessed as tumor growth inhibition at 3 mg/kg, ip administered twice daily and measured on 13 day in presence of presence of anti-PD-1 relative to control; assay type: functional; conditions: CT26, 312 h, read-out: TGI
[35] = Toxicity against BALB/c mouse allografted with mouse CT26 cells assessed as body weight loss at 30 mg/kg, administered orally twice daily for 2 weeks; assay type: organism-based; conditions: in vivo, po, 336 h
[36] = Toxicity against BALB/c mouse […] with mouse CT26 cells assessed as body weight loss at 3 mg/kg, ip administered twice daily and measured on 13 day in presence of presence of anti-PD-1; assay type: organism-based; conditions: in vivo, 312 h
[37] = Toxicity in CD-1 mouse assessed as body weight loss at 300 mg/kg, po; assay type: organism-based; conditions: in vivo
[38] = Toxicity in CD-1 mouse assessed as body weight loss at 1000 mg/kg, po; assay type: organism-based; conditions: in vivo
[39] = molecular target: T1, Mitogen-activated protein kinase kinase kinase kinase 1; experiment: Inhibition of human HPK1 at 1000 nM incubated for 1 hrs by active site-directed competition binding assay relative to control; values are per cent of control
Target sequence in this assay (Q92918 whole entry, looked up, the tested form may be a part): as the sequence (Q92918 whole entry, the tested form may be a part) above

[40] = molecular target: Tyrosine-protein kinase Lck (Homo sapiens) (UniProt P06239); experiment: Inhibition of LCK (unknown origin) at 1000 nM incubated for 1 hrs by active site-directed competition binding assay relative to control; values are per cent of control
[41] = molecular target: RAC-beta serine/threonine-protein kinase (Homo sapiens) (UniProt P31751); experiment: Inhibition of AKT2 (unknown origin) at 1000 nM incubated for 1 hrs by active site-directed competition binding assay relative to control; values are per cent of control
[42] = molecular target: RAC-gamma serine/threonine-protein kinase (Homo sapiens) (UniProt Q9Y243); experiment: Inhibition of AKT3 (unknown origin) at 1000 nM incubated for 1 hrs by active site-directed competition binding assay relative to control; values are per cent of control
[43] = molecular target: Calcium/calmodulin-dependent protein kinase type IV (Homo sapiens) (UniProt Q16566); experiment: Inhibition of CAMK4 (unknown origin) at 1000 nM incubated for 1 hrs by active site-directed competition binding assay relative to control; values are per cent of control
Chain of Calcium/calmodulin-dependent protein kinase type IV (Homo sapiens) (Q16566 whole entry): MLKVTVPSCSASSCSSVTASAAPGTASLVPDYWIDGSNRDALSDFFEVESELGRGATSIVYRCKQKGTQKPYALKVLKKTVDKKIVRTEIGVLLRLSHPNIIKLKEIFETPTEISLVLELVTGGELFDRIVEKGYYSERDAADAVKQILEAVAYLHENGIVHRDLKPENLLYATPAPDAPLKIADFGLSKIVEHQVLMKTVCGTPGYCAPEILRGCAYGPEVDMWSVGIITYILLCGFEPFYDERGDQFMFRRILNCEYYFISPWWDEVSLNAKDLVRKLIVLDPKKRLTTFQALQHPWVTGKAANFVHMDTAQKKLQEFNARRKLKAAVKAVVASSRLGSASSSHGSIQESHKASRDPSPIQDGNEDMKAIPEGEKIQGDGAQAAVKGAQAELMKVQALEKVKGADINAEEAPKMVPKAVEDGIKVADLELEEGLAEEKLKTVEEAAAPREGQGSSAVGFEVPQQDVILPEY

[44] = molecular target: Mitogen-activated protein kinase kinase kinase 1 (Homo sapiens) (UniProt Q13233); experiment: Inhibition of MAP3K1 (unknown origin) at 1000 nM incubated for 1 hrs by active site-directed competition binding assay relative to control; values are per cent of control

SMILES: O=C(NCc1nc(Nc2ccc(-c3cnc4cc(F)ccn34)c3cn[nH]c(=O)c23)ccc1C1CCOCC1)NC1CC1
IC50 [1]: > 1000 nM

SMILES: CN(C)Cc1nc(Nc2ccc(-c3cnc4cc(F)ccn34)c3c(F)c[nH]c(=O)c23)ccc1C1CCOCC1
IC50 [1]: > 1000 nM

SMILES: CN(C)Cc1nc(Nc2ncc(-c3cnc4cc(F)ccn34)c3cn[nH]c(=O)c23)ccc1C1CCOCC1
IC50 [1]: 539 nM

SMILES: O=c1[nH]ncc2c(-c3cnc4cc(F)ccn34)ccc(Nc3ccc(C4CCOCC4)c(CN4CCC(O)C4)n3)c12 (configuration not stated)
IC50 [1]: 39.1 nM | EC50 [3]: 223 nM | Activity [3]: Dose-dependent-effect

The next compounds have a lower IC50 [1] than those just listed; values first:

IC50 [1]: 24.4 nM | EC50 [2]: 32 nM | EC50 [3]: 254 nM | Activity [3]: Dose-dependent-effect
SMILES: COC1CCN(Cc2nc(Nc3ccc(-c4cnc5cc(F)ccn45)c4cn[nH]c(=O)c34)ccc2C2CCOCC2)C1 (configuration not stated)

IC50 [1]: 10.4 nM | EC50 [2]: 41 nM | EC50 [3]: 108 nM | Activity [3]: Dose-dependent-effect | half-life [4]: 36 min | clearance [5]: 46 mL/min/kg | AUC(0-t) [6]: 4140 ng·h/mL | bioavailability [7]: 116% | half-life [8]: 48 min | clearance [9]: 67 mL/min/kg | Cmax [10]: 518 ng/mL | AUC(0-t) [11]: 2010 ng·h/mL | bioavailability [12]: 80% | Cmax [13]: 1800 ng/mL | IC50 [14]: 448 nM | IC50 [15]: 85 nM | IC50 [16]: 665 nM | IC50 [17]: 104 nM | IC50 (Misshapen-like kinase 1): 168 nM | inhibition [18]: 56% | inhibition [19]: 69% | inhibition [20]: 93% | inhibition [21]: 94% | inhibition [22]: 96% | inhibition [23]: 86% | inhibition [24]: 94% | inhibition [25]: 84% | inhibition [26]: 36% | inhibition [27]: 62% | inhibition [28]: 85% | inhibition (Homo sapiens): 1.5% | inhibition [29]: 90% | inhibition [31]: 100% | inhibition [32]: 50% | percent of control [39]: 0.6% | percent of control [40]: 100% | percent of control [41]: 100% | percent of control [42]: 100% | percent of control [43]: 100% | percent of control [44]: 100%
SMILES: O=c1[nH]ccc2c(-c3cnc4cc(F)ccn34)ccc(Nc3ccc(C4CCOCC4)c(CN4CC[C@H](F)C4)n3)c12
IC50 [30]: 4740 nM | inhibition in vivo at 30 mg/kg (CT26 [33]): 42% | inhibition in vivo at 3 mg/kg (CT26 [34]): 95% | Activity [35]: Non-toxic | Activity [36]: Non-toxic | Activity [37]: Non-toxic | Activity [38]: Non-toxic
